This is an account of results in PMC9437215, “Synthesis and antibacterial activity evaluation of N (7) position-modified balofloxacins” (Frontiers in Chemistry, 2022).

The MIC is the least concentration at which growth counts as inhibited. Broadly, the MBC is the smallest concentration meeting the test's criterion for killing. What is called melting point is the temperature of the solid-liquid transition.

Values after ≈ are worked out from the molar mass of the structure shown. Read-outs that look alike come from different tables or passages of the source.

Series [1] deals with MRSA. In words: MIC and MBC determinations in vitro, MRSA. Type of series: cell-based. To be noted: Staphylococcus aureus, MRSA, 24 h, MRSA clinical isolate; for MIC: 24 h culture, read-out: MIC; for MBC: solid medium 24 h, read-out: MBC. The procedure:
(§1) The three strains of MRSA, P. aeruginosa, and E. coli used in this experiment were from clinical isolates, which were provided by the People’s Liberation Army 304 Hospital.
(§2) To evaluate the antibacterial activities of newly synthesized N (7) position modified fluoroquinolones, the minimum inhibitory (MIC) and bactericidal (MBC) concentrations of these compounds toward bacteria were measured.

Series [2] in a line: Hemolytic activity. Type of series: cell-based, rabbit. To be noted: male, New Zealand white, rabbit, red cell suspension from rabbit blood; even at high concentrations (> 10^5 × MIC), 37°C, 24 h; read-out: hemolysis rate. As to the method:
The animal experiment was approved by the Laboratory Animal Management Committee/Laboratory Animal Welfare Ethics Committee, Institute of Radiation Medicine, Chinese Academy of Medical Sciences (No. IRM-DWLL-2019153). Hemolysis anemia is one of the major adverse reactions of antibiotics. To assess the blood compatibility of N (7) position modified balofloxacin, the hemolytic activity of 2-e was tested. Fresh rabbit blood, obtained from the ear vein of a male New Zealand white rabbit, was diluted at a ratio of 1:20 in volume with PBS, centrifuged and resuspended in PBS at 1,000 rpm for 5 min to form an experimental red cell suspension. 500 μL drug 2-e solution and equal volumes of blood suspension were mixed in which the final drug concentration was 500, 250, 125, 62.5, 31.25, 15.62, 7.81, 3.91, 1.95, and 0.98 μg/ml, respectively, these mixtures were incubated at 37°C for 24 h. The positive control group was an equal volume of diluted blood cells mixed with an equal volume of 0.5% Triton X-100. The negative control group was mixed with an equal volume of PBS and diluted blood cells. After incubation, the mixture in a series of centrifuge tubes was centrifuged under the same conditions, and 200 μL of the supernatant was aspirated and transferred to a 96-well plate. The release of hemoglobin from the main contents was measured at A405nm using a microplate reader (Thermo, Varioskan Flash 3001, United States). Each data were from the triplicate experiments. The percentage of hemolysis in the hemolysis test was calculated according to the following formula: %Hemolysis=(A405 test sample−A405 negative control)/(A405 positive control−A405 negative control).

Series [3] relates to P. aeruginosa. In words: MIC and MBC determinations in vitro, P. aeruginosa. Type of series: cell-based. To be noted: P. aeruginosa clinical isolate; for MIC: 24 h culture; for MBC: solid medium 24 h. The procedure: as §1, §2
For series [4], the system named is MRSA. In words: Time-dependent antibacterial effects in vitro. Type of series: cell-based. As to the method:
In order to further verify the antibacterial effect of the representative compound 2-e, time-dependent bactericidal activity of 2-e against MRSA was determined. This study referred to the reported methods ([Ling et al., 2015]). MRSA was cultured overnight in LB liquid and the bacterial solution at 10^9 CFU/ml tested on the machine was diluted at 1:10,000 with LB liquid medium and cultured at 37°C, 180 rpm. […] Time-dependent bacterial colonies were evaluated at 4 or 8 h intervals as follows: 100 μL of the mixture at the current time point was taken and centrifuged at 10,000 rpm for 2 min, and the pellet formed was dispersed with PBS, which was diluted by the ten-fold dilution method. 100 μL of bacterial dilution was evenly spread on LB solid medium at 37°C for 24 h. The colonies counted, according to national standards, accounted for the drug’s time-dependent antibacterial results. The same experimental operation was repeated three times independently.

For series [5], the system named is E. coli. In words: MIC and MBC determinations in vitro, E. coli. In kind it is cell-based. To be noted: Escherichia coli, E. coli clinical isolate; for MIC: 24 h culture; for MBC: solid medium 24 h. The procedure: as §1, §2
The test system of series [6] is MRSA cells. In words: Cell wall damage monitored by atomic force microscopy (AFM). Type of series: cell-based. Particulars: 10 μM, 37°C, 30 min. As to the method: To observe the structural changes in the bacterial surface after the administration of balofloxacin derivative 2-e, atomic force microscope assay was performed. The bacterial suspension was diluted with LB liquid medium to 10^7 CFU/ml. The bacterial solution and the drug solution were mixed in an equal volume so that the concentration of 1e and 2-e was 10 μM in the final solution, respectively. And after mixing, it was incubated at 37°C for 30 min, together with the control group in the same way. After that, the sample was centrifuged at 9,000 rpm for 5 min and the supernatant was discarded, while the precipitate was washed twice with physiological saline in the same volume and centrifuged at 9,000 rpm for 5 min. Finally, the bacterial sample, prepared by dispersion in the same volume of physiological saline solution, was dropped onto the surface of the mica plate (about 0.5 cm^2), dried naturally at ambient temperature, and scanned by an atomic force microscope.

Series [7] has as its system MRSA, P. aeruginosa, and E. coli. In words: MIC and MBC values stated over the three strains together. In kind it is cell-based. To be noted: range over MIC and MBC and the three strains; read-out: MIC and MBC values. The procedure:
as §1, §2

[8] abbreviates: Pseudomonas aeruginosa, read-out: MIC.
Setting [9] is: Pseudomonas aeruginosa, read-out: MBC.

With `CNC1CCCN(c2c(F)cc3c(=O)c(C(=O)O)cn(C4CC4)c3c2OC)C1` (stereo not shown) [Compound 1e, balofloxacin], the MIC in series [1], in series [3], in series [3] (setting [8]) and in series [5] was 0.078 µg/mL (≈ 0.2 µM) each time. For the same molecule, the MBC in series [1], in series [3], in series [3] (setting [9]) and in series [5] was 0.156 µg/mL (≈ 0.401 µM) each time. Besides, the hemolysis at 24 h in series [2] is at most 5%. The “antibacterial activity in early and late stages of the exponential growth phase” value in series [4] (10 × MIC, MRSA) is listed as “good antibacterial activity”. Further, in series [4] (early exponential phase, start log10 CFU 5.5, 10 × MIC), the “log10 CFU after the first 8 h” value was 0. The “structural change of MRSA cells in AFM image” value in series [6] is “ruptured and there was an outflow of cellular contents”.
In the case of `C[C@H]1COc2c(C3(N)CC3)c(F)cc3c(=O)c(C(=O)O)cn1c23` [Compound 1g, pazufloxacin, reference compound], the values for the minimal inhibitory concentration (MIC) in series [1], in series [3] (setting [8]) and in series [5] were 0.156 µg/mL (≈ 0.49 µM), 0.313 µg/mL (≈ 0.983 µM) and 0.156 µg/mL (≈ 0.49 µM), respectively. Further, the MBC in series [1] was 0.313 µg/mL (≈ 0.983 µM); in series [3] (setting [9]), 0.625 µg/mL (≈ 1.96 µM); in series [5], 0.313 µg/mL (≈ 0.983 µM); in series [7] it was 0.156 to 0.625 µg/mL (≈ 0.49 to 1.96 µM).
Consider `CC(=O)NC1(c2c(F)cc3c(=O)c(C(=O)O)cn4c3c2OCC4C)CC1` (stereo not shown) [Compound 2-g, 10-(1-Acetamidocyclopropyl)-9-fluoro-3-methyl-7-oxo-2,3-dihydro-7H-[1,4]oxazino[2,3,4-ij]quinoline-6-carboxylic acid], for which the melting point lay within 273.1 to 274.1 °C. In addition, in series [1], the MIC is 25 µg/mL (≈ 69.4 µM) and the MBC was determined as 50 µg/mL (≈ 139 µM). Besides, the MIC in series [3] (setting [8]) came out at 25 µg/mL (≈ 69.4 µM). In series [3] (setting [9]), the MBC was determined as 50 µg/mL (≈ 139 µM). In series [5], this molecule displayed an MIC of 25 µg/mL (≈ 69.4 µM) and an MBC of 50 µg/mL (≈ 139 µM). The MBC in series [7] lay in the range of 25 to 50 µg/mL (≈ 69.4 to 139 µM).
As to `COc1c(N2CCCC(N(C)C(=O)c3ccco3)C2)c(F)cc2c(=O)c(C(=O)O)cn(C3CC3)c12` (stereo not shown) [Compound 13-e, 1-Cyclopropyl-6-fluoro-8-methoxy-7-(3-(N-methylfuran-2-carboxamido)piperidin-1-yl)-4-oxo-1,4-dihydroquinoline-3-carboxylic acid], the melting point lay within 167.5 to 168.7 °C. Besides, in series [1], the MIC was 0.078 µg/mL (≈ 0.161 µM) and the MBC came to 0.156 µg/mL (≈ 0.323 µM). Further, the MIC in series [3] (setting [8]) amounted to 0.078 µg/mL (≈ 0.161 µM). Also, the MBC in series [3] (setting [9]) came to 0.156 µg/mL (≈ 0.323 µM). In series [5], this molecule registered an MIC of 10 µg/mL (≈ 20.7 µM) and an MBC of 20 µg/mL (≈ 41.4 µM).
`COc1c(N2CCCC(N(C)C(=O)C3CCCO3)C2)c(F)cc2c(=O)c(C(=O)O)cn(C3CC3)c12` (stereo not shown) [Compound 14-e, 1-Cyclopropyl-6-fluoro-8-methoxy-7-(3-(N-methyltetrahydrofuran-2-carboxamido)piperidin-1-yl)-4-oxo-1,4-dihydroquinoline-3-carboxylic acid] showed a melting point of 140.2 to 141.2 °C. In series [1], the MIC is 0.078 µg/mL (≈ 0.16 µM) and the minimal bactericidal concentration (MBC) came to 0.156 µg/mL (≈ 0.32 µM). Further, the MIC in series [3] (setting [8]) is 0.156 µg/mL (≈ 0.32 µM). Further, the MBC in series [3] (setting [9]) came to 0.313 µg/mL (≈ 0.642 µM). In series [5], this molecule registered an MIC of 20 µg/mL (≈ 41 µM) and an MBC of 20 µg/mL (≈ 41 µM).
Molecule `COc1c(N2CCCC(N(C)C(=O)C3CCCC3)C2)c(F)cc2c(=O)c(C(=O)O)cn(C3CC3)c12` (stereo not shown) [Compound 16-e, 1-Cyclopropyl-6-fluoro-8-methoxy-7-(3-(N-methylcyclopentanecarboxamido)piperidin-1-yl)-4-oxo-1,4-dihydroquinoline-3-carboxylic acid] showed a melting point of 105.1 to 106.4 °C. Moreover, in series [1], the MIC is 0.313 µg/mL (≈ 0.645 µM) and the MBC amounted to 0.625 µg/mL (≈ 1.29 µM). The MIC in series [3] (setting [8]) stood at 0.313 µg/mL (≈ 0.645 µM). Besides, the MBC in series [3] (setting [9]) was determined as 0.625 µg/mL (≈ 1.29 µM). In series [5], inhibition of growth (MIC) required 20 µg/mL (≈ 41.2 µM) and the MBC was 40 µg/mL (≈ 82.4 µM).
In the case of `COc1c(N2CCCC(N(C)C(=O)CC#N)C2)c(F)cc2c(=O)c(C(=O)O)cn(C3CC3)c12` (stereo not shown) [Compound 22-e, 7-(3-(2-Cyano-N-methylacetamido)piperidin-1-yl)-1-cyclopropyl-6-fluoro-8-methoxy-4-oxo-1,4-dihydroquinoline-3-carboxylic acid], the melting point was in the range of 184.8 to 186.2 °C. Further, in series [1], the MIC stood at 0.39 µg/mL (≈ 0.854 µM) and the MBC was found to be 0.78 µg/mL (≈ 1.71 µM). Also, the MIC in series [3] (setting [8]) is 0.78 µg/mL (≈ 1.71 µM). Also, the minimum bactericidal concentration (MBC) in series [3] (setting [9]) was 1.56 µg/mL (≈ 3.42 µM). In series [5], this molecule yielded a minimum inhibitory concentration (MIC) of 0.78 µg/mL (≈ 1.71 µM) and an MBC of 1.56 µg/mL (≈ 3.42 µM).
